Patent US20140121103A1, “COMPOSITIONS COMPRISING FUNGICIDAL SUBSTITUTED DITHIINES AND FURTHER ACTIVES” (BASF SE, priority 2011, published 2014)
Where two headings read alike, the source gives them in different places.

How the values were obtained:
Type in all cases: cell-based
[1] = test system: Pyricularia oryzae; details: active alone
[2] = test system: Septoria tritici; assay: Activity against leaf blotch on wheat caused by Septoria tritici (microtiter plate); details: active alone
[3] = test system: Leptosphaeria nodorum; assay: Activity against wheat leaf spots caused by Leptosphaeria nodorum (microtiter plate)
[4] = test system: Alternaria solani; assay: Activity against early blight caused by Alternaria solani (microtiter plate); details: active alone
[5] = test system: Botrytis cinerea; assay: Activity against the grey mold Botrytis cinerea in the microtiterplate test; details: active alone
[6] = Parastagonospora nodorum, 168 h, active alone, read-out: Observed efficacy

## Cc1ccc(-c2c(Cl)nc(C#N)n2S(=O)(=O)N(C)C)cc1 [Cyazofamid]
[1]; 1 ppm
  Observed efficacy: 8%
[2]; 1 ppm
  Observed efficacy: 2%
[3]; [6]
  inhibition of growth at 1 ppm: 25%

## COCC(=O)N(c1c(C)cccc1C)[C@H](C)C(=O)OC [Metalaxyl-M]
[1]; 4 ppm
  Observed efficacy: 8%
[2]; 4 ppm
  Observed efficacy: 11%
[3]; active alone, 4 ppm
  Observed efficacy: 26%

## CCCCCCCCc1c(CC)nc2ncnn2c1N [Ametoctradin]
[1]; 4 ppm
  Observed efficacy: 12%
[2]; 4 ppm
  Observed efficacy: 13%
[3]; active alone, 4 ppm
  Observed efficacy: 31%
[4]; 4 ppm
  Observed efficacy: 4%

## CC1(C(=O)Nc2ccc(O)c(Cl)c2Cl)CCCCC1 [Fenhexamid]
[2]; 16 ppm
  Observed efficacy: 28%
[3]; [6]
  inhibition of growth at 16 ppm: 37%

## Cc1ccc(C(C)NC(=O)[C@@H](NC(=O)OC(C)C)C(C)C)cc1 (some centres unmarked) [Iprovalicarb]
[1]; 4 ppm
  Observed efficacy: 6%
[2]; 4 ppm
  Observed efficacy: 13%

## COC(=O)N(OC)c1ccccc1COc1ccn(-c2ccc(Cl)cc2)n1 [Pyraclostrobin]
[3]; Parastagonospora nodorum, 168 h, active alone, 0.25 ppm, read-out: Observed efficacy
  inhibition of growth at 0.25 ppm: 57%

## N#CC1=C(C#N)SC(C#N)=C(C#N)S1 [Compound I.A, 2,3,5,6-tetracyano-[1,4]dithiine]
[5]; 0.063 ppm
  Observed efficacy: 1%
[5]; 4 ppm
  Observed efficacy: 14%
[1]; 4 ppm
  Observed efficacy: 20%
[2]; 0.016 ppm
  Observed efficacy: 8%
[2]; 1 ppm
  Observed efficacy: 18%
[2]; 4 ppm
  Observed efficacy: 74%
[3]; Parastagonospora nodorum, 168 h, read-out: Observed efficacy
  inhibition of growth at 4 ppm: 53%
[3]; [6]
  inhibition of growth at 1 ppm: 7%
[4]; 1 ppm
  Observed efficacy: 11%
[4]; 4 ppm
  Observed efficacy: 46%

## Cc1cc(C)nc(Nc2ccccc2)n1 [Pyrimethanil]
[1]; 16 ppm
  Observed efficacy: 72%

## CC(C)[C@H](NC(=O)O)C(=O)N[C@H](C)c1nc2ccc(F)cc2s1 [Benthiavalicarb]
[1]; 4 ppm
  Observed efficacy: 3%
[2]; 4 ppm
  Observed efficacy: 10%
[3]; active alone, 4 ppm
  Observed efficacy: 27%

## OC(Cc1ccccc1Cl)(Cn1nc[nH]c1=S)C1(Cl)CC1 (centres unmarked) [Prothioconazol]
[3]; [6]
  inhibition of growth at 1 ppm: 52%

## CC1COC(Cn2cncn2)(c2ccc(Oc3ccc(Cl)cc3)cc2Cl)O1 (centres unmarked) [Difenoconazol]
[1]; 1 ppm
  Observed efficacy: 27%

## CC(C)(C)C(O)(CCc1ccc(Cl)cc1)Cn1cncn1 (centres unmarked) [Tebuconazol]
[2]; 0.25 ppm
  Observed efficacy: 54%

## N#Cc1c(Cl)c(Cl)c(Cl)c(C#N)c1Cl [Chlorothalonil]
[5]; 4 ppm
  Observed efficacy: 58%
[3]; [6]
  inhibition of growth at 1 ppm: 22%
[4]; 1 ppm
  Observed efficacy: 17%

## O=C(Nc1ccccc1-c1ccc(Cl)cc1)c1cccnc1Cl [Boscalid]
[1]; 16 ppm
  Observed efficacy: 6%
[3]; [6]
  inhibition of growth at 16 ppm: 25%

## COC(=O)Nc1nc2ccccc2[nH]1 [Carbendazim]
[5]; 0.063 ppm
  Observed efficacy: 75%
[2]; 0.016 ppm
  Observed efficacy: 0%
[4]; 4 ppm
  Observed efficacy: 35%

## Cn1cc(C(=O)Nc2ccccc2-c2cc(F)c(F)c(F)c2)c(C(F)F)n1 [Fluxapyroxad]
[1]; 0.063 ppm
  Observed efficacy: 7%
[3]; active alone, 0.063 ppm
  Observed efficacy: 23%

## CO/C=C(/C(=O)OC)c1ccccc1Oc1cc(Oc2ccccc2C#N)ncn1 [Azoxystrobin]
[2]; 0.25 ppm
  Observed efficacy: 65%

## CC(C)NC(=O)N1CC(=O)N(c2cc(Cl)cc(Cl)c2)C1=O [Iprodion]
[1]; 4 ppm
  Observed efficacy: 29%
[2]; 4 ppm
  Observed efficacy: 0%
[3]; Parastagonospora nodorum, 168 h, active alone, 4 ppm, read-out: Observed efficacy
  inhibition of growth at 4 ppm: 54%

## CCCN(CCOc1c(Cl)cc(Cl)cc1Cl)C(=O)n1ccnc1 [Prochloraz]
[2]; 0.063 ppm
  Observed efficacy: 20%
